Results: patent US10287305B2, “Substituted piperidine compound and use thereof” (Takeda Pharmaceutical Company Limited, priority 2016, dated 2019)

Target: human orexin type 2 receptor (hOX2R) (Homo sapiens (Human), UniProt O43614)
Assay: Measurement of orexin type 2 receptor agonist activity (Experimental Example 2-1, FLIPR TETRA, intracellular Ca2+)
Assay type: cell-based
Conditions: CHO dhfr- cells expressing hOX2R, FLIPR TETRA, Fluo-4AM; for Emax: read-out: Emax (%)

human orexin type 2 receptor (hOX2R), sequence (O43614 whole entry): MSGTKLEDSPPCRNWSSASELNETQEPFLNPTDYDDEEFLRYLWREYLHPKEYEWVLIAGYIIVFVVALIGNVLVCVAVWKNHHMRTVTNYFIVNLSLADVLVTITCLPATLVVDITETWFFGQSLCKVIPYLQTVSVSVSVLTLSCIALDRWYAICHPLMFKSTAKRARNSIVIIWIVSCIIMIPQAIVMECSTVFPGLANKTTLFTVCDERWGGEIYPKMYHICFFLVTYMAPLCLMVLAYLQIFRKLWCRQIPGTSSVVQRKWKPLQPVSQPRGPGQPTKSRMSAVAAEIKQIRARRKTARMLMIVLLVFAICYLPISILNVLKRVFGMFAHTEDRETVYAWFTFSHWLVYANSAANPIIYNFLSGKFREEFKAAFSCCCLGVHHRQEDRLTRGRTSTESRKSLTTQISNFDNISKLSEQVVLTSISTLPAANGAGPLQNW

Row | SMILES | EC50 | Emax
1 | CC(C)OC(=O)N1CCC[C@H](NS(C)(=O)=O)[C@@H]1COC1CCN(c2ccccc2F)CC1 (relative stereo) [Example 237, isopropyl cis-2-(((1-(2-fluorophenyl)piperidin-4-yl)oxy)methyl)-3-((methylsulfonyl)amino)piperidine-1-carboxylate] | 490 nM | 90%
2 | CS(=O)(=O)N[C@H]1CCCN(C(=O)C2CCC(F)(F)CC2)[C@H]1COC1CCN(c2ccccc2F)CC1 (relative stereo) [Example 238, N-(cis-1-((4,4-difluorocyclohexyl)carbonyl)-2-(((1-(2-fluorophenyl)piperidin-4-yl)oxy)methyl)piperidin-3-yl)methanesulfonamide] | 2100 nM | 91%
3 | CS(=O)(=O)N[C@H]1CCCN(C(=O)C2CC2)[C@H]1COC1CCN(c2ccccc2)CC1 (relative stereo) [Example 247, N-(cis-1-(cyclopropylcarbonyl)-2-(((1-phenylpiperidin-4-yl)oxy)methyl)piperidin-3-yl)methanesulfonamide] | 960 nM | 102%
4 | CS(=O)(=O)N[C@H]1CCCN(C(=O)C2CC2)[C@H]1COC1CCC(c2ccccn2)CC1 (relative stereo) [Example 251, N-(cis-1-(cyclopropylcarbonyl)-2-(((4-(pyridin-2-yl)cyclohexyl)oxy)methyl)piperidin-3-yl)methanesulfonamide] | 240 nM | 98%
5 | CC(=O)N1CCC[C@H](NS(C)(=O)=O)[C@@H]1CO[C@H]1CC[C@@H](c2cccc(C#N)c2)CC1 (relative stereo) [Example 252, N-(cis-1-acetyl-2-(((cis-4-(3-cyanophenyl)cyclohexyl)oxy)methyl)piperidin-3-yl)methanesulfonamide] | 2900 nM | 93%
6 | CS(=O)(=O)N[C@H]1CCCN[C@H]1CO[C@H]1CC[C@@H](c2ccccc2C#N)CC1 (relative stereo) [Example 262, N-(cis-2-(((cis-4-(2-cyanophenyl)cyclohexyl)oxy)methyl)piperidin-3-yl)methanesulfonamide] | 2500 nM | 94%
7 | COC(=O)N1CCC[C@H](NS(C)(=O)=O)[C@@H]1CO[C@H]1CC[C@@H](c2ccccc2C#N)CC1 (relative stereo) [Example 265, methyl cis-2-(((cis-4-(2-cyanophenyl)cyclohexyl)oxy)methyl)-3-((methylsulfonyl)amino)piperidine-1-carboxylate] | 2300 nM | 94%

The next compounds have a lower EC50 than those just listed; values first:

Row | EC50 | Emax | SMILES
8 | 0.61 nM | 99% | CCNC(=O)N1CCC[C@H](NS(C)(=O)=O)[C@@H]1CO[C@H]1CC[C@@H](c2ccccc2C(F)(F)F)CC1 (relative stereo) [Example 249, cis-N-ethyl-3-((methylsulfonyl)amino)-2-(((cis-4-(2-(trifluoromethyl)phenyl)cyclohexyl)oxy)methyl)piperidine-1-carboxamide]
9 | 88 nM | 105% | CCNC(=O)N1CCC[C@H](NS(C)(=O)=O)[C@@H]1CO[C@H]1CC[C@@H](c2cccc(C#N)c2)CC1 (relative stereo) [Example 254, cis-2-(((cis-4-(3-cyanophenyl)cyclohexyl)oxy)methyl)-N-ethyl-3-((methylsulfonyl)amino)piperidine-1-carboxamide]
10 | 8.1 nM | 102% | CC(C)OC(=O)N1CCC[C@H](NS(C)(=O)=O)[C@@H]1COC1CCN(c2ncccn2)CC1 (relative stereo) [Example 255, isopropyl cis-3-((methylsulfonyl)amino)-2-(((1-(pyrimidin-2-yl)piperidin-4-yl)oxy)methyl)piperidine-1-carboxylate]
11 | 57 nM | 88% | CCNC(=O)N1CCC[C@H](NS(C)(=O)=O)[C@@H]1CO[C@H]1CC[C@@H](c2ccccc2C#N)CC1 (relative stereo) [Example 263, cis-2-(((cis-4-(2-cyanophenyl)cyclohexyl)oxy)methyl)-N-ethyl-3-((methylsulfonyl)amino)piperidine-1-carboxamide]
